“Also recorded” adds a separate entry of the source. Like-named read-outs stand apart in the source and are kept apart here.
Tests used:
MTT tumors [1] = settings: for increase of average SUVmean of tumors vs control cohort: MTT tumors, VPA 250 mg/kg, DAC 1 mg/kg, single or combination, i.p. twice at 72 h interval, DAC P < 0.05, combination P < 0.01; for SUVmean tumor / SUVmax ratio tumor / muscle / SUVmax tumor / SUVmean ratio tumor / muscle: MTT; for percentage of MTT responders (SUV): n = 7 per cohort, threshold control mean + 2×TE
Protocol: All animal experiments were carried out according to the guidelines of the German Regulations for Animal Welfare and have been approved by the local Ethical Committee for Animal Experiments. A number of 4×10^6 MPC or MTT cells were re-suspended in 40 µL of Dulbecco's phosphate-buffered saline and injected subcutaneously into the shoulder of 10-15 week-old female nude mice (Rj:NMRI-Foxn1^nu/nu, Janvier Labs, Le Genest-Saint-Isle, France). Prior to imaging procedures, general anesthesia was induced and maintained with inhalation of 10% (v/v) desflurane in 30/10% (v/v) oxygen/air. During anesthesia, animals were continuously warmed at 37°C. Tumor growth was monitored three times per week using caliper measurements. Tumor volume was calculated assuming a tri-axial ellipsoid with the axes a, b, and c using the formula V = π/6×abc. Animals were sacrificed using CO2 inhalation and cervical dislocation.
Preparation of epigenetic drugs is described in Supplemental Information 1.1. Animals received VPA (1.7×10^‒3 mol/kg ≈ 250 mg/kg), DAC ([…] ≈ 1 mg/kg), or a combination of both, in Dulbecco's phosphate buffered saline (200 µL/30 g body weight), delivered as two consecutive intraperitoneal injections in a 72 h-interval. Applied doses were within the epigenetically effective dose range in mice, as reported elsewhere, [41]-[43]. The estimated human equivalent doses corresponded to 20‒30% of the clinically applied tumor-suppressive doses in patients, [45]. Animals in control groups received Dulbecco's phosphate buffered saline only. Multiple independent experiments were performed, always including animals of all treatment groups (Table 1).
Small animal positron emission tomography (PET) was performed using the nanoPET/CT scanner (Mediso Medical Imaging Systems, Budapest, Hungary). […] Recording, binning, framing, and image reconstruction were performed as reported previously. Dynamic imaging was performed for 60 min, static imaging between 40‒60 min after radiotracer injection. With each PET scan, a corresponding CT image was recorded and used for anatomical referencing and attenuation correction. […] Standardized uptake values (SUV) were determined and reported as SUVmean (VOI-averaged) and SUVmax (VOI-maximum). Details on quantitative PET image analysis are provided in Supplemental Information 1.4.
106 (VOIs) were created (40‒60 min frames) applying fixed thresholds for delineation of tumor
107 (30%), muscle (0%), kidneys (25%), and liver (35%). […]

MPC and MTT cells = assay: Viability assay (colorimetric tetrazolium dye); format: cell-based, mouse; settings: MPC and MTT cells (similar); three days after treatment start; two treatments at 24 h interval
Protocol: Viability of cells seeded into collagen-coated 96-well microplates (6×10^4/cm^2) was measured three days after treatment start using a colorimetric tetrazolium dye assay [39]. Doxorubicin served as positive control.

SSTR2 [2] = molecular target: T1, SSTR2 (Mus musculus, UniProt P30875); assay: [68Ga]Ga-DOTA-TATE radioligand uptake in cells; format: cell-based; settings: MPC cells; 37 °C; VPA 10^-3 mol/L; DAC 5×10^-7 mol/L; attributed to cytotoxic effects
T1 construct: endogenous in cells; host or cells: MPC and MTT mouse pheochromocytoma cells (cell homogenates), untreated or treated with VPA + DAC
T1 sequence (P30875 whole entry): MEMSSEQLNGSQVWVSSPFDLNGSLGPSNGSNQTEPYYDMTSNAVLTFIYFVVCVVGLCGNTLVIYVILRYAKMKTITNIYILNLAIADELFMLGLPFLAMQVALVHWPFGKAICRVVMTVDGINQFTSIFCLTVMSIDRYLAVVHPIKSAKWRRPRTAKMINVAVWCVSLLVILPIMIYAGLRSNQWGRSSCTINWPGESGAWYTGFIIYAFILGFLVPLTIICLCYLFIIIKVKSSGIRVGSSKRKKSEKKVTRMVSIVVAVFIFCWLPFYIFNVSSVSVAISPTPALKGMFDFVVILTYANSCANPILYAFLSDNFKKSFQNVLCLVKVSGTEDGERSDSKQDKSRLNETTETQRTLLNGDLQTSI
Protocol: Cells were seeded into collagen-coated microplates or collagen-coated flasks 24 h before epigenetic treatment (ET) start and treated twice (24 h interval) with VPA and DAC, as single and combination doses, respectively. Treatment effects were investigated two to six days (d) after final ET. Preparation of epigenetic drugs is reported in Supplemental Information 1.1.
Radionuclide production and supply are described in Supplemental Information 1.2.
Cells were seeded into collagen-coated 24-well microplates (2.5×10^4/cm^2) and uptake of [^68Ga]Ga-DOTA-TATE was measured three and seven days after ET start. Cells were incubated with fresh cell culture medium containing 0.8 MBq/mL [^68Ga]Ga-DOTA-TATE (Am = 10 MBq/nmol), equivalent to 80 nmol/L, for 60 min at 4 °C or 37 °C. Cells were washed and lysed, and activity of cell lysates was measured as described previously. Total protein in cell lysates was measured using the Qubit protein assay (Thermo Fisher Scientific). Uptake of [^68Ga]Ga-DOTA-TATE was reported as % initial dose per mg of protein.

MTT tumors [3] = assay: Tumor growth of MTT allografts; format: in vivo, mouse; settings: PET cohorts; for Vtumor, ET start: day 0 baseline, mean ± SEM; for Vtumor, ET start + 4 d: day 4, mean ± SEM
Protocol: (§1) During anesthesia, animals were continuously warmed at 37°C. […] Animals were sacrificed using CO2 inhalation and cervical dislocation. […]
(§2) 70 1.1 Preparation of epigenetic drugs
(§3) 71 For in vitro application, VPA was freshly dissolved in cell culture medium and added to the
(§4) 72 cells at final concentrations between 10‒5 and 10‒2 mol/L. DAC was dissolved in H2O to obtain
(§5) 73 a 10‒4 mol/L stock solution that was stored at ‒20 °C. For each experiment, aliquots of the DAC
(§6) 74 stock were thawed and added to the cells at final concentrations between 10‒8 and 10‒5 mol/L.
(§7) 75 For in vivo application, VPA was dissolved at 0.26 mol/L in Dulbecco’s phosphate-buffered
(§8) 76 saline. DAC was dissolved at 0.04 mol/L in acetic acid (9.6 mol/L) to obtain a stock solution
(§9) 77 that was further diluted to 6.6×10‒4 mol/L in Dulbecco’s phosphate buffered. […]
(§10) 88 1.3 Tumor volumes in animal cohorts
(§11) 89 Animals with higher initial tumor volume were specifically included in cohorts that received
(§12) 90 epigenetic drugs in order to compensate for the growth-reducing effects of ET and to match
(§13) 91 tumor volumes as closely as possible across cohorts at the time of radiopharmaceutical injection

SSTR2 [4] = settings: cited from earlier work; for SSTR2 expression (effect): BON-1 cells, monotherapies and combined application; for SSTR2 gene expression (effect): QGP-1 cells
Text: HDAC and DNMT inhibitors can have different impacts depending on the cellular background. For example, in QGP-1 cells, DAC induced, but VPA inhibited SSTR2 gene expression.

MPC tumors = assay: Tumor growth of MPC allografts; format: in vivo, mouse; settings: PET cohorts; for Vtumor, ET start: day 0 baseline, mean ± SEM; for Vtumor, ET start + 4 d: day 4, mean ± SEM
Protocol: as §1, §2, §3, §4, §5, §6, §7, §8, §9, §10, §11, §12, §13

[5] = [64Cu]Cu-DOTA-TATE, 40‒60 min p.i., day 1 after final ET, control or VPA 250 mg/kg, DAC 1 mg/kg days −3 and 0, mean ± SEM, DAC P < 0.05, VPA+DAC P < 0.001
[6] = as SUVmean, mean ± SEM, DAC P < 0.05
[7] = as SUVmean, mean ± SEM, VPA+DAC P < 0.01

SMILES: Nc1ncn([C@H]2C[C@H](O)[C@@H](CO)O2)c(=O)n1 [DAC, 5-Aza-2'-deoxycytidine]
- increase of average SUVmean of tumors vs control cohort (MTT tumors [1]): 1.7 fold
- SUVmean tumor (MTT tumors [1]; [5]): 0.88 ± 0.13
- SUVmax ratio tumor / muscle (MTT tumors [1]; animal 1, 40‒60 min p.i.): 4.01
- SUVmax tumor (MTT tumors [1]; animal 1, 40‒60 min p.i.): 0.83
- SUVmean ratio tumor / muscle (MTT tumors [1]; animal 1, 40‒60 min p.i.): 4.91
- SUVmean tumor (MTT tumors [1]; animal 1, 40‒60 min p.i.): 0.38
- SUVmax ratio tumor / muscle (MTT tumors [1]; animal 2, 40‒60 min p.i.): 6.62
- SUVmax tumor (MTT tumors [1]; animal 2, 40‒60 min p.i.): 1.52
- SUVmean ratio tumor / muscle (MTT tumors [1]; animal 2, 40‒60 min p.i.): 7.82
- SUVmean tumor (MTT tumors [1]; animal 2, 40‒60 min p.i.): 0.65
- SUVmax ratio tumor / muscle (MTT tumors [1]; animal 3, 40‒60 min p.i.): 5.31
- SUVmax tumor (MTT tumors [1]; animal 3, 40‒60 min p.i.): 1.66
- SUVmean ratio tumor / muscle (MTT tumors [1]; animal 3, 40‒60 min p.i.): 8.27
- SUVmean tumor (MTT tumors [1]; animal 3, 40‒60 min p.i.): 0.77
- SUVmax ratio tumor / muscle (MTT tumors [1]; animal 4, 40‒60 min p.i.): 11.0
- SUVmax tumor (MTT tumors [1]; animal 4, 40‒60 min p.i.): 2.00
- SUVmean ratio tumor / muscle (MTT tumors [1]; animal 4, 40‒60 min p.i.): 12.6
- SUVmean tumor (MTT tumors [1]; animal 4, 40‒60 min p.i.): 0.80
- SUVmax ratio tumor / muscle (MTT tumors [1]; animal 5, 40‒60 min p.i.): 7.68
- SUVmax tumor (MTT tumors [1]; animal 5, 40‒60 min p.i.): 1.88
- SUVmean ratio tumor / muscle (MTT tumors [1]; animal 5, 40‒60 min p.i.): 11.5
- SUVmean tumor (MTT tumors [1]; animal 5, 40‒60 min p.i.): 0.93
- SUVmax ratio tumor / muscle (MTT tumors [1]; animal 6, 40‒60 min p.i.): 14.7
- SUVmax tumor (MTT tumors [1]; animal 6, 40‒60 min p.i.): 2.71
- SUVmean ratio tumor / muscle (MTT tumors [1]; animal 6, 40‒60 min p.i.): 17.9
- SUVmean tumor (MTT tumors [1]; animal 6, 40‒60 min p.i.): 1.24
- SUVmax ratio tumor / muscle (MTT tumors [1]; animal 7, 40‒60 min p.i.): 18.9
- SUVmax tumor (MTT tumors [1]; animal 7, 40‒60 min p.i.): 2.72
- SUVmean ratio tumor / muscle (MTT tumors [1]; animal 7, 40‒60 min p.i.): 21.3
- SUVmean tumor (MTT tumors [1]; animal 7, 40‒60 min p.i.): 1.37
- SUVmax ratio tumor / muscle (MTT tumors [1]; as SUVmean, mean ± SEM): 9.74 ± 2.05
- SUVmean ratio tumor / muscle (MTT tumors [1]; [6]): 12.1 ± 2.2
- SUVmax tumor (MTT tumors [1]; [7]): 1.90 ± 0.25
- percentage of MTT responders (SUV) (MTT tumors [1]): 57%
- LD50 (MPC and MTT cells): 6.3e-07 mol/L
- [68Ga]Ga-DOTA-TATE uptake (effect) (SSTR2 [2]): impairment of [68Ga]Ga-DOTA-TATE uptake; also recorded: reduced radiotracer uptake at 37 °C
- Vtumor, ET start (MTT tumors [3]): 0.23 ± 0.07 cm3
- Vtumor, ET start + 4 d (MTT tumors [3]): 0.24 ± 0.06 cm3
- SSTR2 expression (effect) (SSTR2 [4]): increased
- SSTR2 gene expression (effect) (SSTR2 [4]): induced
- Vtumor, ET start (MPC tumors): 0.39 ± 0.16 cm3
- Vtumor, ET start + 4 d (MPC tumors): 0.57 ± 0.18 cm3

SMILES: CCCC(CCC)C(=O)O [VPA, valproic acid]
- increase of average SUVmean of tumors vs control cohort (MTT tumors [1]): 1.4 fold
- SUVmean tumor (MTT tumors [1]; [5]): 0.73 ± 0.08
- SUVmax ratio tumor / muscle (MTT tumors [1]; animal 1, 40‒60 min p.i.): 3.3
- SUVmax tumor (MTT tumors [1]; animal 1, 40‒60 min p.i.): 0.69
- SUVmean ratio tumor / muscle (MTT tumors [1]; animal 1, 40‒60 min p.i.): 3.20
- SUVmean tumor (MTT tumors [1]; animal 1, 40‒60 min p.i.): 0.34
- SUVmax ratio tumor / muscle (MTT tumors [1]; animal 2, 40‒60 min p.i.): 4.72
- SUVmax tumor (MTT tumors [1]; animal 2, 40‒60 min p.i.): 1.41
- SUVmean ratio tumor / muscle (MTT tumors [1]; animal 2, 40‒60 min p.i.): 10.52
- SUVmean tumor (MTT tumors [1]; animal 2, 40‒60 min p.i.): 0.70
- SUVmax ratio tumor / muscle (MTT tumors [1]; animal 3, 40‒60 min p.i.): 8.25
- SUVmax tumor (MTT tumors [1]; animal 3, 40‒60 min p.i.): 1.61
- SUVmean ratio tumor / muscle (MTT tumors [1]; animal 3, 40‒60 min p.i.): 7.63
- SUVmean tumor (MTT tumors [1]; animal 3, 40‒60 min p.i.): 0.71
- SUVmax ratio tumor / muscle (MTT tumors [1]; animal 4, 40‒60 min p.i.): 10.8
- SUVmax tumor (MTT tumors [1]; animal 4, 40‒60 min p.i.): 1.60
- SUVmean ratio tumor / muscle (MTT tumors [1]; animal 4, 40‒60 min p.i.): 11.4
- SUVmean tumor (MTT tumors [1]; animal 4, 40‒60 min p.i.): 0.73
- SUVmax ratio tumor / muscle (MTT tumors [1]; animal 5, 40‒60 min p.i.): 5.31
- SUVmax tumor (MTT tumors [1]; animal 5, 40‒60 min p.i.): 1.62
- SUVmean ratio tumor / muscle (MTT tumors [1]; animal 5, 40‒60 min p.i.): 7.80
- SUVmean tumor (MTT tumors [1]; animal 5, 40‒60 min p.i.): 0.74
- SUVmax ratio tumor / muscle (MTT tumors [1]; animal 6, 40‒60 min p.i.): 5.70
- SUVmax tumor (MTT tumors [1]; animal 6, 40‒60 min p.i.): 1.73
- SUVmean ratio tumor / muscle (MTT tumors [1]; animal 6, 40‒60 min p.i.): 9.73
- SUVmean tumor (MTT tumors [1]; animal 6, 40‒60 min p.i.): 0.86
- SUVmax ratio tumor / muscle (MTT tumors [1]; animal 7, 40‒60 min p.i.): 6.06
- SUVmax tumor (MTT tumors [1]; animal 7, 40‒60 min p.i.): 2.23
- SUVmean ratio tumor / muscle (MTT tumors [1]; animal 7, 40‒60 min p.i.): 9.95
- SUVmean tumor (MTT tumors [1]; animal 7, 40‒60 min p.i.): 1.06
- SUVmax ratio tumor / muscle (MTT tumors [1]; as SUVmean, mean ± SEM): 6.30 ± 0.94
- SUVmean ratio tumor / muscle (MTT tumors [1]; [6]): 8.60 ± 1.04
- SUVmax tumor (MTT tumors [1]; [7]): 1.55 ± 0.17
- percentage of MTT responders (SUV) (MTT tumors [1]): 29%
- LD50 (MPC and MTT cells): 0.0013 mol/L
- [68Ga]Ga-DOTA-TATE uptake (effect) (SSTR2 [2]): impairment of [68Ga]Ga-DOTA-TATE uptake; also recorded: reduced radiotracer uptake at 37 °C
- Vtumor, ET start (MTT tumors [3]): 0.14 ± 0.05 cm3
- Vtumor, ET start + 4 d (MTT tumors [3]): 0.35 ± 0.05 cm3
- SSTR2 expression (effect) (SSTR2 [4]): increased
- SSTR2 gene expression (effect) (SSTR2 [4]): inhibited
- stimulating effects on SSTR2 expression and [111In]In-DOTA-TATE uptake, reversibility (SSTR2 [4]; one day after VPA withdrawal): largely reversible one day after VPA withdrawal
- Vtumor, ET start (MPC tumors): 0.27 ± 0.13 cm3
- Vtumor, ET start + 4 d (MPC tumors): 0.46 ± 0.23 cm3
